The values below come from paper PMC12689914, “Identification of a novel dual-targeting peptide inhibitor of SARS-CoV-2 RBD and NRP1 through structure-based virtual screening” (Frontiers in Pharmacology, 2025).

pIC50, pKd: −log10 of the molar value. Non-standard residues stand in square brackets, D forms with d. Residues, ends and D or L forms follow the SMILES beside them. No end group written: not given here. *: point of attachment. Biotin = O=C1N[C@H]2[C@H](CS[C@H]2CCCCC(=O)*)N1; βAla = NCCC(=O)O

As a reminder, the pKd is the Kd on a negative log10 scale, so that one unit is a factor of ten. A higher pKd goes with a small Kd. As a reminder, the IC50 is the concentration that gives 50% inhibition. Usually pIC50 stands for −log10 of the IC50, conventionally taken in molar units.

Data set [1] has as its target T1, NRP1 (Homo sapiens, UniProt O14786).
T1 construct: purchased Abcam
Kind of data set: MST binding affinity to NRP1. Here is the method: (§1) MST assay was used to analyze the binding ability of peptides 1–5 to RBD and NRP1. Specifically, RBD and NRP1 proteins were labeled using a lysine (Lys) labeling kit, respectively, and their final concentrations were adjusted to 50 nM. The peptides were serially diluted in a 1:1 gradient starting from an initial concentration of 12.5 μM. Subsequently, the labeled proteins were mixed with the diluted peptides in 100 mM potassium phosphate buffer (pH 7.0). After incubation at room temperature for 5 min, the mixture was loaded into standard MST glass capillaries. Detection was performed using a Monolith NT.115 instrument with the MST power set to 50% and the LED power set to 20%. The experiment was independently repeated three times.

Data set [2] deals with SARS-CoV-2 RBD. In words: MST binding affinity to RBD. The conditions noted are these: for pKd: MST, 50 nM labeled protein, 100 mM potassium phosphate buffer pH 7.0. Here is the method: as §1
The subject of data set [3] is A549 cells. In words: MTT cytotoxicity assay. The data set is classed as cell-based, human. As to conditions: 100 μM, 48 h. The method, then:
A549 cells ([…], catalog number: PCS-300-010) were purchased from the American Type Culture Collection (ATCC, Manassas, VA, United States). The cells were cultured in Airway Epithelial Cell Basal Medium (ATCC, catalog number: PCS-300-030) supplemented with Bronchial/Tracheal Epithelial Cell Growth Kit (ATCC, catalog number: PCS-300-040) and incubated in a 37 °C incubator with 5% CO2. Then, cells were seeded into 96-well plates at a density of 5 × 10^4 cells per well and incubated overnight at 37 °C with 5% CO2. Subsequently, cells were treated with 100 μM peptides 1–5 for 48 h. After treatment, MTT stock solution (0.5 mg/mL) was added to each well, followed by additional 4-h incubation. Finally, the absorbance signal was measured at 570 nm using a microplate reader.
(Tetrazolium assays rely on reduction of a dye to a coloured formazan, in cell work by metabolically active cells.)

For data set [4] the following is noted: mice, 1 and 5 mg/kg intranasal.
Data set [5] has as its target T2, hERG channel (Homo sapiens, UniProt Q12809).
T2 construct: purchased Invitrogen
In words: Predictor hERG fluorescence polarization assay. It is filed as binding. As to conditions: for IC50 at 4 h: human, Predictor hERG Membrane (Invitrogen kit). The method, then: This study was conducted using the Predictor hERG Fluorescence Polarization Assay Kit purchased from Invitrogen. The kit comprises Predictor hERG Tracer Red, Predictor hERG Membrane, Predictor hERG FP Assay Buffer, and E-4031 as the positive control. The Predictor hERG Tracer Red was diluted to prepare a 4 nM tracer working solution, while the stock solution of E-4031 was diluted to a 120 μM E-4031 working solution. Subsequently, serial dilutions of E-4031 were prepared to serve as the reference compound. Test peptides were subjected to gradient dilution to generate solutions with 6 concentration gradients. For the assay procedure, buffer or compound solution was first added to the assay plate, followed by the addition of membrane and the tracer. After incubating the assay plate at 25 °C for 4 h, fluorescence polarization (FP) values (mp values) were measured using an EnVision microplate reader (PerkinElmer) equipped with a set of polarized filters. The half-maximal inhibitory concentration (IC50) of active compounds was determined using GraphPad Prism software.

Data set [6] deals with SARS-CoV-2 Omicron XBB.1.5 pseudovirus. The conditions noted are these: 3.2 µM.
The test system of data set [7] is live SARS-CoV-2 Omicron XBB.1.5 strain. Also noted: species or system K18-hACE2 mice. As to conditions: mouse, in vivo.

T1 sequence (O14786 22-923): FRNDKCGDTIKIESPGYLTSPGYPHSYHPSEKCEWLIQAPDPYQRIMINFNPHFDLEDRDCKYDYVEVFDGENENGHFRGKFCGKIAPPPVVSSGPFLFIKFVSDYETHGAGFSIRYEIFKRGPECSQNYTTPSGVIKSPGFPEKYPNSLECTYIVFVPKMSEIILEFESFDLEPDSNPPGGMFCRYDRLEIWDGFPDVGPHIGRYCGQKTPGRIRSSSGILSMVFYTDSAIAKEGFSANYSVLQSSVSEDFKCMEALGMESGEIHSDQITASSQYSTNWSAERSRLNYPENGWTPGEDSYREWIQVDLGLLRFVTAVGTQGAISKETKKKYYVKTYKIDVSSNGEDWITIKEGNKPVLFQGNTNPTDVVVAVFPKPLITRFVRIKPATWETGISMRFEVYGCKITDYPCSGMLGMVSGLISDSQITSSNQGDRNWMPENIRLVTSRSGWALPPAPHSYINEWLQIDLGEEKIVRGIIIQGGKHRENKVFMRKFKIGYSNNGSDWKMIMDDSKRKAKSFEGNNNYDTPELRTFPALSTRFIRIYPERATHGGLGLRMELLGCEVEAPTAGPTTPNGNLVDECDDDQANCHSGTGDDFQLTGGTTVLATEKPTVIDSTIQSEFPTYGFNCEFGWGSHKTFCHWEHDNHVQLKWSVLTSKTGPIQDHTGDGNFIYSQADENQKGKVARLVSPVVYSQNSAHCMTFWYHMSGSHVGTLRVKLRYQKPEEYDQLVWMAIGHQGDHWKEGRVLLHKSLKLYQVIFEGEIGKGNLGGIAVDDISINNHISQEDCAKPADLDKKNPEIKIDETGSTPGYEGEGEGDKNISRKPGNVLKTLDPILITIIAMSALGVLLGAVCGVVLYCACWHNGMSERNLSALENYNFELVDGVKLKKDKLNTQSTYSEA
T2 sequence (Q12809 whole entry): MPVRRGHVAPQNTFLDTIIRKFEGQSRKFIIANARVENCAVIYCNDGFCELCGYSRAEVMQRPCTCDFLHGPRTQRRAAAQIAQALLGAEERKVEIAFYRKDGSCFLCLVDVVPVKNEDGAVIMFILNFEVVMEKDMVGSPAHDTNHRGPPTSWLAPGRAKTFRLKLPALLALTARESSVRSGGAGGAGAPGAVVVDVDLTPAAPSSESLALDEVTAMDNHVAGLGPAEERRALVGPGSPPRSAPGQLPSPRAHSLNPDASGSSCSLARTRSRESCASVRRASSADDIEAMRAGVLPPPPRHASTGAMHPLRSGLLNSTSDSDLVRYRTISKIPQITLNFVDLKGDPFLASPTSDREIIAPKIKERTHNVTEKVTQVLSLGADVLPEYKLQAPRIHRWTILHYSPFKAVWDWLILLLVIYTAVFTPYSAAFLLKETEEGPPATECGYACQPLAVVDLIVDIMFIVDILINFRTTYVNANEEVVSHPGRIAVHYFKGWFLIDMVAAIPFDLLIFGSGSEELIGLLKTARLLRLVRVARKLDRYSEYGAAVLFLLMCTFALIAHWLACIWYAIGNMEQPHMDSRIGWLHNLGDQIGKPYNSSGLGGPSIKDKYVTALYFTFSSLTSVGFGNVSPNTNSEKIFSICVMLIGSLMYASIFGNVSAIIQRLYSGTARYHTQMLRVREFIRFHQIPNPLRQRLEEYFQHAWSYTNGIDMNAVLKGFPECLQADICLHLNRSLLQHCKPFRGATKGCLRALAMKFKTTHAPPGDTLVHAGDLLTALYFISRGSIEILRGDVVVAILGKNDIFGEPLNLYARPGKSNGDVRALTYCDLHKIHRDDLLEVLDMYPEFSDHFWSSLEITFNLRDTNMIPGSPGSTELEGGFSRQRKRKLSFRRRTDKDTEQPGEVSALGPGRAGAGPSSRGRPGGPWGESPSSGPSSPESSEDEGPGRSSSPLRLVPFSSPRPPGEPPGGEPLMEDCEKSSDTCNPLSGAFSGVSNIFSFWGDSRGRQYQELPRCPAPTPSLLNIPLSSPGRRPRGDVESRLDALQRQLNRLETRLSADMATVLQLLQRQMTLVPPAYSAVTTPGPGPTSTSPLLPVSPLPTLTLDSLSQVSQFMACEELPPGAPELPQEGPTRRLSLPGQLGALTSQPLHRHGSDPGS

For `N=C(N)NCCC[C@@H](N)C(=O)N1CCC[C@@H]1C(=O)N1CCC[C@@H]1C(=O)N[C@H](CCCNC(=N)N)C(=O)N[C@H](CCC(=O)O)C(=O)NCC(=O)N[C@H](CCCNC(=N)N)C(=O)O` [NTP, rppregr] (H-[dR][dP][dP][dR][dE]G[dR]-OH), in data set [1], the pKd is 6.85.

`CSCC[C@H](NC(=O)[C@@H](NC(=O)[C@@H](N)CC(C)C)C(C)C)C(=O)NCC(=O)N[C@@H](CC(C)C)C(=O)N[C@@H](CC(N)=O)C(=O)N[C@H](C(=O)N[C@@H](Cc1c[nH]c2ccccc12)C(=O)N[C@@H](CC(C)C)C(=O)N[C@@H](CCCNC(=N)N)C(=O)N[C@@H](Cc1ccc(O)cc1)C(=O)N[C@@H](CO)C(=O)N[C@@H](CCCCN)C(=O)NCCC(=O)N[C@@H](CCCCNC(=O)CCCC[C@@H]1SC[C@@H]2NC(=O)N[C@@H]21)C(N)=O)C(C)C` [PP-4] (H-LVMGLNVWLRYSK[βAla]K(Biotin)-NH2; N-terminus assumed) gave a pKd in data set [2] of 7.10. Besides, the “NRP1 (Kd)” value in data set [1] (MST, 50 nM labeled protein, 100 mM potassium phosphate buffer pH 7.0) was “no binding affinity”.

With `CC(C)C[C@H](NC(=O)[C@H](CCC(=O)O)NC(=O)[C@H](C)NC(=O)[C@@H](N)CCC(=O)O)C(=O)N[C@H](CC(=O)O)C(=O)N[C@H](C(=O)N[C@@H](CO)C(=O)N[C@@H](CC(=O)O)C(=O)N[C@@H](C)C(=O)N[C@@H](Cc1ccccc1)C(=O)N[C@@H](Cc1ccc(O)cc1)C(=O)N[C@@H](CCCNC(=N)N)C(=O)N[C@@H](Cc1ccccc1)C(=O)N[C@@H](Cc1ccccc1)C(=O)N[C@@H](CCCNC(=N)N)C(=O)N[C@@H](CCCNC(=N)N)C(=O)N[C@@H](C)C(=O)N[C@@H](CCCNC(=N)N)C(=O)O)C(C)C` [Peptide-1] (H-EAEL[dD]VSDAFYRFFRRAR-OH; N-terminus and C-terminus assumed), the “cytotoxicity to A549 cells” value in data set [3] is on record as “no obvious toxicity”. Moreover, in data set [4], the “alanine aminotransferase (ALT) level” value is “did not change significantly”, the “aspartate aminotransferase (AST) level” value was “did not change significantly”, the “blood urea nitrogen (BUN) level” value is listed as “did not change significantly” and the “creatinine (CRE) level” value is on record as “did not change significantly”. For the same compound, in data set [2], the pKd is 7.72. In data set [2] (versus PP-4), the “fold higher affinity for RBD compared with the single-target peptide” value was “approximately 4.2 fold”. Moreover, the IC50 at 4 h in data set [5] was above 50 µM. The “inhibition rate against SARS-CoV-2 Omicron XBB.1.5 infection” value in data set [6] is “approximately 80%”. Further, the “fold higher affinity for NRP1 compared with the single-target peptide” value in data set [1] (versus NTP) is around 4.4 fold. Besides, in data set [7], the “viral load in the lungs of mice vs control” value was “significantly reduced”.

`CC(C)C[C@H](NC(=O)[C@H](C)NC(=O)[C@@H](NC(=O)[C@@H](N)CO)[C@@H](C)O)C(=O)N[C@H](CC(=O)O)C(=O)N[C@H](C(=O)N[C@@H](CO)C(=O)N[C@@H](CC(=O)O)C(=O)N[C@@H](C)C(=O)N[C@@H](Cc1ccccc1)C(=O)N[C@@H](Cc1ccc(O)cc1)C(=O)N[C@@H](CCCNC(=N)N)C(=O)N[C@@H](Cc1ccccc1)C(=O)N[C@@H](Cc1ccccc1)C(=O)N[C@@H](CCCNC(=N)N)C(=O)N[C@@H](CCCCN)C(=O)N[C@@H](C)C(=O)N[C@@H](CCCNC(=N)N)C(=O)O)C(C)C` [Peptide-2] (H-STAL[dD]VSDAFYRFFRKAR-OH; N-terminus and C-terminus assumed): the pKd in data set [2] was 7.25. In data set [5], the 50% inhibitory concentration (IC50) at 4 h is above 50 µM.

As to `CC[C@H](C)[C@H](NC(=O)[C@@H](N)CC(N)=O)C(=O)N[C@@H](CCC(=O)O)C(=O)N[C@@H](CC(C)C)C(=O)N[C@H](CC(=O)O)C(=O)N[C@@H](C)C(=O)N[C@@H](CO)C(=O)N[C@@H](CC(=O)O)C(=O)N[C@@H](C)C(=O)N[C@@H](Cc1ccccc1)C(=O)N[C@H](C(=O)N[C@@H](CCCNC(=N)N)C(=O)N[C@@H](Cc1ccccc1)C(=O)N[C@@H](Cc1ccccc1)C(=O)N[C@@H](CCCNC(=N)N)C(=O)N[C@@H](CCC(N)=O)C(=O)N[C@@H](C)C(=O)N[C@@H](CCCNC(=N)N)C(=O)O)C(C)C` [Peptide-4] (H-NIEL[dD]ASDAFVRFFRQAR-OH; N-terminus and C-terminus assumed), the pKd in data set [2] was 7.16. Further, the IC50 at 4 h in data set [5] is above 50 µM.

In data set [2], `CC[C@H](C)[C@H](NC(=O)[C@H](CCC(=O)O)NC(=O)[C@H](CS)NC(=O)[C@H](C)N)C(=O)N[C@H](CC(=O)O)C(=O)N[C@H](C(=O)N[C@@H](CO)C(=O)N[C@@H](CC(=O)O)C(=O)N[C@@H](C)C(=O)N[C@@H](Cc1ccccc1)C(=O)N[C@@H](CCCCN)C(=O)N[C@@H](CCCNC(=N)N)C(=O)N[C@@H](Cc1ccccc1)C(=O)N[C@@H](Cc1ccccc1)C(=O)N[C@@H](CCCNC(=N)N)C(=O)N[C@@H](C)C(=O)N[C@@H](C)C(=O)N[C@@H](CCCNC(=N)N)C(=O)O)C(C)C` [Peptide-5] (H-ACEI[dD]VSDAFKRFFRAAR-OH; N-terminus and C-terminus assumed) gave a pKd of 7.37. The IC50 at 4 h in data set [5] was above 50 µM.

Turning to ELELVVSTAFYRFFRHAR [Peptide-3], the negative logarithm of the IC50 (pIC50) in data set [5] was below 4.30. Besides, the pKd in data set [1] was 7.09.
